Source: US12357645B2, “Drug combination for treatment of gastric cancer” (priority 2023, dated 2025)

Legend:
[1] = tested on: patients with Advanced Gastrointestinal Tumors; experiment: Phase 1 study of intravenous minnelide prodrug: safety; assay type: in vivo, human
From the text: Intravenous Minnelide Prodrug. Phase 1, Multi-Center, Open-Label, Dose-Escalation, Safety, Pharmacokinetic, and Pharmacodynamic Study of minnelide prodrug given intravenously daily for 21 days followed by 7 days off schedule in patients with Advanced Gastrointestinal Tumors. A second dosing schedule of minnelide prodrug given intravenously QD for 5 days with 2 days off for three weeks followed by a 7-day rest period was also explored during this study.

[2] = tested on: dogs; experiment: Definitive toxicity studies in dogs (intravenous, oral gavage); assay type: in vivo
Description: As clinical development of minnelide prodrug was initiated using an intravenous drug product, IND-enabling toxicology studies were conducted in both rats and dogs using the intravenous route of administration. The results of these studies supported first-in-human clinical trials involving intravenous administration of minnelide prodrug to patients with advanced solid tumors. To support the clinical development of a new solid oral dosage form of minnelide prodrug (capsules), exploratory and definitive toxicity studies were conducted with minnelide prodrug in solution via oral gavage in dogs. Taken together, the results of the intravenous and oral toxicity studies conducted with minnelide prodrug indicate that the target organ profile of minnelide prodrug is consistent in both species (rats and dogs) when administered by either route of administration (intravenous or oral).

[3] = tested on: pancreatic tumor cell lines; experiment: Viability of pancreatic tumor cell lines in vitro (activated with alkaline phosphatase); assay type: cell-based; settings: activated by concurrent incubation with alkaline phosphatase
[4] = tested on: patients with Advanced Solid Tumors; assay type: in vivo, human
From the text: Oral Minnelide Prodrug. A Phase 1, Multi-Center, Open-Label, Dose-Escalation, Safety, Pharmacokinetic, and Pharmacodynamic Study of Minnelide™ Capsules given alone or in combination with protein-bound paclitaxel in patients with Advanced Solid Tumors. A total of 44 patients were enrolled and dosed in the Phase 1 study, 32 in the monotherapy regimen, and 12 in the combination regimen. The primary reason for discontinuation of treatment has been disease progression. There were 9 deaths in the study, 7 of which were assessed as not related to minnelide prodrug and were after discontinuation of the study drug. One patient on the 1.25 mg monotherapy regimen passed away from G5 related sepsis.

[5] = tested on: gastric cancer cell lines MKN28 and MKN45; settings: inhibits Sp1 to decrease HSP70; cited from earlier work
[6] = tested on: advanced gastric cancer (AGC); experiment: Phase 1 study of minnelide prodrug alone or with paclitaxel in advanced gastric cancer (NCT 05566834): antitumor activity (RECIST v1.1; BOR, ORR, DCR, PFS, OS); assay type: in vivo, human
Description: Target Lesions. All measurable lesions up to a maximum of two lesions per organ and five lesions in total, representative of all involved organs, were identified as target lesions and recorded and measured at baseline. Target lesions were selected on the basis of their size (lesions with the longest diameter) and were representative of all involved organs, as well as their suitability for reproducible repeated measurements. All measurements were recorded using calipers if clinically assessed.
A sum of the diameters (longest for non-nodal lesions, short axis for nodal lesions) for all target lesions were calculated and reported as the baseline sum diameters, which were used as a reference to further characterize any objective tumor regression in the measurable dimension of the disease. If lymph nodes were included in the sum, only the short axis contributed.
Study design. This was an open-label, nonrandomized, phase 1 study conducted at Samsung Medical Center (SMC) in Korea. The study consisted of three regimens: Monotherapy with minnelide prodrug (Regimen A) and Combination therapy (minnelide prodrug plus paclitaxel), which was further divided into Regimen B and C.
Patients. Adult (≥20 years of age) Korean patients with histologically confirmed advanced-unresectable or metastatic gastric or gastro-esophageal junction adenocarcinoma, who had failed initial standard therapy or for whom no standard treatment was available, were eligible to participate in the study, regardless of HER2 status. Study treatment was discontinued if the patient experienced radiological progressive disease (PD) per Response Evaluation Criteria in Solid Tumors version 1.1 (RECIST v1.1) as assessed by the investigator, clinical progression as assessed by the investigator, or developed unacceptable toxicity.
Treatments. In Regimen A, 3-5 patients were treated at escalating doses of minnelide prodrug alone to determine the maximum tolerated dose (MTD). Minnelide prodrug was administered per oral (PO) once daily for 21 days followed by a 7-day rest period, starting at 1 mg, and escalating to 1.25 mg, and 1.5 mg. One cycle was equal to 28 days and minnelide prodrug was given with the patient in a fasting state. In Regimen B, the same dosing scheme was used for minnelide prodrug 0.25 mg PO in combination with paclitaxel intravenously on days 1, 8 and 15 (Q4W), starting at 60 mg/m^2, and escalating to 80 mg/m^2. In Regimen C, patients were treated with paclitaxel 80 mg/m^2 given intravenously on days 1, 8 and 15 (Q4W) in combination with minnelide prodrug PO once daily on days 1 to 5, 8 to 12 and 15 to 19, starting at 0.5 mg, escalating to 0.75 mg, 1.0 mg, and 1.25 mg. Dose-limiting toxicities (DLTs) were assessed during cycle 1. Treatment continued until disease progression, death, unacceptable toxicity, or patient or investigator decision to discontinue.
Outcomes. In this phase 1 study, the primary objective was to determine the maximum tolerated dose (MTD) and the dose limiting toxicities (DLT) of minnelide prodrug when given alone or in combination with paclitaxel and to establish recommended phase 2 dose (RP2D) of single-agent minnelide prodrug and in combination with paclitaxel every 4 weeks. Secondary objectives were to assess any evidence of antitumor activity of minnelide prodrug alone and in combination with paclitaxel by objective radiographic assessment. Antitumor activity was assessed by objective response rate (ORR). Disease control rate (DCR), duration of response (DOR), progression-free survival (PFS) and overall survival (OS) analysis were performed.
Assessment. Adverse events were graded using National Cancer Institute Common Terminology Criteria for Adverse Events (NCI CTCAE), version 4.03. Tumor assessments were performed after cycles 2, 4, 6, and 8, and every 4 cycles thereafter, or as indicated. Response was determined by investigators using RECIST criteria, version 1.1. […]

[7] = 44 patients, alone or with protein-bound paclitaxel
[8] = Regimen A (PO daily x21 d/28 d), n = 11
[9] = Regimen A, nine patients who completed at least 1 cycle with measurable lesions
[10] = Regimen A, Kaplan-Meier estimate

For CC(C)[C@]12O[C@H]1[C@@H]1O[C@]13[C@]1(O[C@H]1C[C@H]1C4=C(CC[C@@]13C)C(=O)OC4)[C@@H]2OCOP(=O)([O-])[O-].[Na+].[Na+] [minnelide prodrug, disodium; [(1S,2S,4S,5S,7S,8R,9R,11S, 13S)-1-methyl-17-oxo-7-propan-2-yl-3,6,10,16-tetraoxaheptacyclo [11.7.0.0^2,4.0^2,9.0^5,7.0^9,11.0^14,18]icos-14 (18)-en-8-yl]oxymethyl phosphate], the “Anemia and thrombocytopenia Grade 3 and 4 (drug related), share of patients” value [1] was 22%, the “Serious Adverse Events related to the study drug” value [1] was “six” and the “Serious Adverse Events, number” value [1] was 28. For the same molecule, the “TEAE cases considered DLTs” value [1] was “two”, the “other possibly related side effects of any grade (nausea, vomiting, diarrhea, constipation, anorexia, stomatitis, cerebellar toxicity, embolism, dyspnea), share of patients” value [1] was ≤ 3% and the “patients with Serious Adverse Events” value [1] was 17. The “patients with at least 1 AE considered related to the study drug” value [1] was 32, the “patients with neutropenic fever and neutropenic infection (drug related)” value [1] was “three” and the “deaths in the study” value ([1]; 42 patients dosed, after study drug ended, within 30-day follow-up, not related to study drug) was 6. The “patients who discontinued study drug due to TEAEs” value ([1]; all Grade 3) was 3, the “resolution of grade 3 and 4 neutropenia after not receiving treatment” value ([1]; all dose levels) was “within a couple of days” and the “histopathology of reproductive tract tissues, males and females” value ([2]; definitive toxicity studies, dogs) was “adverse, largely irreversible histopathological effects”. The “histopathology of the gastrointestinal tract” value ([2]; oral gavage for up to 28 consecutive days) was “No adverse histopathological effects”, the “potency in decreasing viability” value [3] was “as potent as triptolide” and the “Serious Adverse Events related to the study drug” value [4, 7] was 4. The “Serious Adverse Events, number” value [4, 7] was 28, the “patients who discontinued study drug due to TEAE” value [4, 7] was “Four” and the “patients with Serious Adverse Events” value [4, 7] was 17. The “deaths in the study” value ([4]; 44 patients: 32 monotherapy, 12 combination) was 9, the “deaths assessed as not related to minnelide prodrug” value ([4]; after discontinuation of the study drug) was 7 and the “patients with at least 1 AE considered related to the study drug” value ([4]; in vivo) was “Twenty-seven”. The “SAE cases considered dose limiting toxicities (DLTs)” value ([4]; two events of sepsis, one influenza A pneumonia) was “Three”, the cell death [5] was “induce cell death” and the “Duration of OS, Range” value ([6]; Regimen A) was 1.6-11.1 months. The “Duration of PFS, Range” value ([6]; Regimen A) was 0.7-5.4 months, the “PFS events, n (%)” value ([6]; Regimen A) was 9 n (%) and the “BOR NE, number of patients” value [6, 8] was 2. The “BOR PD, number of patients” value [6, 8] was 5, the “BOR SD, number of patients” value [6, 8] was “Four” and the “DCR, n (%)” value [6, 8] was 4 (36.4) n (%). For the same molecule, the “ORR, n (%)” value [6, 8] was 0 n (%), the “BOR SD, number of patients” value ([6]; Regimen A (PO daily x21 d/28 d), n = 11, listed as Minnelide prodrug) was 4 and the “BOR PD, share of patients” value [6, 9] was 55.6%. The “BOR SD, share of patients” value [6, 9] was 44.4%, the DCR [6, 9] was 44.4% and the “Duration of OS, Median” value [6, 10] was 5.3 months. The “Duration of PFS, Median” value [6, 10] was 1.6 months and the “duration of stable disease (one patient)” value ([6]; single agent, patient had failed four lines of therapy including immunotherapy) was 5.4 months.
